Earlier results in US9149436B2, “Pharmaceutical product comprising a sequestered agent” (Purdue Pharma L.P., priority 2003, dated 2015).

Details: after oral doses

SMILES | duration of action [h]
O=C1CC[C@@]2(O)[C@H]3Cc4ccc(O)c5c4[C@@]2(CCN3CC2CC2)[C@H]1O5 [naltrexone] | ~24
C[C@H]1[C@H]2Cc3ccc(O)cc3[C@]1(C)CCN2CC1CC1 [cyclazocine] | ~24
